In patent US20210395313A1, “PEPTIDE PAC1 ANTAGONISTS” (AMGEN INC., priority 2017, published 2021):
pIC50: −log10 of the molar value. Where a SMILES comes first, the peptide text is derived from it. Bridges are numbered along the chain shown (N, C = ends). [ ]: non-standard residue; d: D form. SeMet = C[Se]CC[C@H](N)C(=O)O

Experiments:
human PAC1 receptor = target: T1, human PAC1 receptor (Homo sapiens, UniProt P41586); assay: LANCE Ultra cAMP accumulation antagonist assay in SHSY-5Y cells; format: cell-based;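 further: inhibition of cAMP accumulation evoked by PAC1 agonist at its EC80 in SHSY-5Y cells endogenously expressing receptor, 30 min preincubation then 15 min agonist, TR-FRET readout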
T1 construct: SHSY-5Y (human neuroblastoma cell line) and RG-2 (rat glioma cell line) cells endogenously express human and rat PAC1 receptors, respectively; endogenous in cells; host or cells: SHSY-5Y human neuroblastoma cells
T1 sequence (P41586 21-468): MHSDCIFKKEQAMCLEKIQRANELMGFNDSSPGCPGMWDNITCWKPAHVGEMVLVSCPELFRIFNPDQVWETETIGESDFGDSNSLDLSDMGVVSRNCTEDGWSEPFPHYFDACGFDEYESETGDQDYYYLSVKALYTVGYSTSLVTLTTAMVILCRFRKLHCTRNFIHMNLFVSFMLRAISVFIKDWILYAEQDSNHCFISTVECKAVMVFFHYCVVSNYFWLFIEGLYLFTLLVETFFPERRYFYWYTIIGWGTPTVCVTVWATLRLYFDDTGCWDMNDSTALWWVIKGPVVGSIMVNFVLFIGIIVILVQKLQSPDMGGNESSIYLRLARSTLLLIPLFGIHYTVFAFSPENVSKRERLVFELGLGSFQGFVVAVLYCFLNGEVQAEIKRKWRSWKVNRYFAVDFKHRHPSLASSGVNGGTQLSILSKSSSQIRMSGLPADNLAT

rat PAC1 receptor = target: T2, rat PAC1 receptor (Rattus norvegicus, UniProt P32215); assay: LANCE Ultra cAMP accumulation antagonist assay in RG-2 cells; format: cell-based;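 further: RG-2 rat glioma cells endogenously expressing PAC1, test peptide preincubated 30 min, then PAC1 agonist added at its EC80 for 15 min, cAMP accumulation read by LANCE Ultra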
T2 construct: SHSY-5Y (human neuroblastoma cell line) and RG-2 (rat glioma cell line) cells endogenously express human and rat PAC1 receptors, respectively; endogenous in cells; host or cells: RG-2 rat glioma cells
T2 sequence (P32215 20-523): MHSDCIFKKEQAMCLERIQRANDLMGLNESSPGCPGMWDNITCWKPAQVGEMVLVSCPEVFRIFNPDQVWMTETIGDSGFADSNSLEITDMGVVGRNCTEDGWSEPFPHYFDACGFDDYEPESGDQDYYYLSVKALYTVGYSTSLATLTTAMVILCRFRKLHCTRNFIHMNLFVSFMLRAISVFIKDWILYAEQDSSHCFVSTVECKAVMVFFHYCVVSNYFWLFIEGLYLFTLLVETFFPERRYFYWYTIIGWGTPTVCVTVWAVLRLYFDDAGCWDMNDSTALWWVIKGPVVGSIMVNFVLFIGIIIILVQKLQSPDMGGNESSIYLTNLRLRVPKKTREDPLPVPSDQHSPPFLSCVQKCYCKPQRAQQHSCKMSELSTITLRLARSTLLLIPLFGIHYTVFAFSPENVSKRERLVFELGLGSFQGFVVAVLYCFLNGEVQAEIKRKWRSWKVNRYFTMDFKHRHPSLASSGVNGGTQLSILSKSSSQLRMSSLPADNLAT

SMILES	pIC50 (human PAC1 receptor)	pIC50 (rat PAC1 receptor)
CC[C@H](C)[C@H](NC(=O)[C@H](C)NC(=O)[C@H](CCCCN)NC(=O)[C@H](CCCNC(=N)N)NC(=O)[C@H](Cc1ccccc1)NC(=O)[C@H](CCC(N)=O)NC(=O)[C@@H]1CSSC[C@H](N)C(=O)N[C@@H](CC(=O)O)C(=O)N[C@@H](C)C(=O)N[C@@H]([C@@H](C)O)C(=O)N1)C(=O)N[C@@H](CC(=O)O)C(=O)N[C@@H](CC(=O)O)C(=O)N[C@H]1CSSC[C@@H](C(=O)N[C@@H](CC[Se]C)C(=O)N[C@@H](CCCCN)C(=O)N[C@@H](CCC(N)=O)C(=O)N[C@@H](CCCCN)C(=O)N[C@@H](CCCCN)C(=O)N[C@@H](CCCCN)C(=O)N[C@@H](CCC(=O)O)C(=O)N[C@@H](Cc2c[nH]c3ccccc23)C(=O)N[C@@H](CCCCN)C(=O)N[C@@H](C)C(=O)NCC(N)=O)NC(=O)[C@H](C)NC(=O)[C@H](CCCCN)NC(=O)[C@H](Cc2ccccc2)NC(=O)[C@H](C(C)C)NC(=O)[C@H](CO)NC(=O)[C@H](CO)NC(=O)[C@H](Cc2c[nH]cn2)NC(=O)[C@H](Cc2ccc(O)cc2)NC(=O)[C@H](C)NC(=O)[C@H](CCC(N)=O)NC(=O)[C@H](CCCNC(=N)N)NC(=O)[C@H](C)NC1=O [compound 6] (H-CDATCQFRKAIDDCARQAYHSSVFKAC[SeMet]KQKKKEWKAG-NH2; disulfide 1-5, 14-27)	9.00 to 11.00	9.00 to 11.00
CC[C@H](C)[C@H](NC(=O)[C@H](C)NC(=O)[C@H](CCCCN)NC(=O)[C@H](CCCNC(=N)N)NC(=O)[C@H](Cc1ccccc1)NC(=O)[C@H](CCC(N)=O)NC(=O)[C@@H]1CSSC[C@H](NC(=O)CN)C(=O)N[C@@H](CC(=O)O)C(=O)N[C@@H](C)C(=O)N[C@@H]([C@@H](C)O)C(=O)N1)C(=O)N[C@@H](CC(=O)O)C(=O)N[C@@H](CC(=O)O)C(=O)N[C@H]1CSSC[C@@H](C(=O)N[C@@H](CCSC)C(=O)N[C@@H](CCCCN)C(=O)N[C@@H](CCC(N)=O)C(=O)N[C@@H](CCCCN)C(=O)N[C@@H](CCCCN)C(=O)N[C@@H](CCCCN)C(=O)N[C@@H](CCC(=O)O)C(=O)N[C@@H](Cc2c[nH]c3ccccc23)C(=O)N[C@@H](CCCCN)C(=O)N[C@@H](C)C(=O)NCC(=O)N[C@@H](Cc2c[nH]cn2)C(=O)O)NC(=O)[C@H](C)NC(=O)[C@H](CCCCN)NC(=O)[C@H](Cc2ccccc2)NC(=O)[C@H](C(C)C)NC(=O)[C@H](CO)NC(=O)[C@H](CO)NC(=O)[C@H](Cc2c[nH]cn2)NC(=O)[C@H](Cc2c[nH]cn2)NC(=O)[C@H](C)NC(=O)[C@H](CCC(N)=O)NC(=O)[C@H](CCCNC(=N)N)NC(=O)[C@H](C(C)C)NC1=O [compound 15] (H-GCDATCQFRKAIDDCVRQAHHSSVFKACMKQKKKEWKAGH-OH; disulfide 2-6, 15-28)	9.00 to 11.00	9.00 to 11.00
CC[C@H](C)[C@H](NC(=O)[C@H](C)NC(=O)[C@H](CCCCN)NC(=O)[C@H](CCCNC(=N)N)NC(=O)[C@H](Cc1ccccc1)NC(=O)[C@H](CCC(N)=O)NC(=O)[C@@H]1CSSC[C@H](N)C(=O)N[C@@H](CC(=O)O)C(=O)N[C@@H](C)C(=O)N[C@@H]([C@@H](C)O)C(=O)N1)C(=O)N[C@@H](CC(=O)O)C(=O)N[C@@H](CC(=O)O)C(=O)N[C@H]1CSSC[C@@H](C(=O)N[C@@H](CCSC)C(=O)N[C@@H](CCCCN)C(=O)N[C@@H](CCC(N)=O)C(=O)N[C@@H](CCCCN)C(=O)N[C@@H](CCCCN)C(=O)N[C@@H](CCCCN)C(=O)N[C@@H](CCC(=O)O)C(=O)N[C@@H](Cc2c[nH]c3ccccc23)C(=O)N[C@@H](CCCCN)C(=O)N[C@@H](C)C(=O)NCC(N)=O)NC(=O)[C@H](C)NC(=O)[C@H](CCCCN)NC(=O)[C@H](Cc2ccccc2)NC(=O)[C@H](C(C)C)NC(=O)[C@H](CO)NC(=O)[C@H](CO)NC(=O)[C@H](Cc2c[nH]cn2)NC(=O)[C@H](Cc2c[nH]cn2)NC(=O)[C@H](C)NC(=O)[C@H](CCC(N)=O)NC(=O)[C@H](CCCNC(=N)N)NC(=O)[C@H](CC(=O)O)NC1=O [compound 16] (H-CDATCQFRKAIDDCDRQAHHSSVFKACMKQKKKEWKAG-NH2; disulfide 1-5, 14-27)	9.00 to 11.00	9.00 to 11.00
